{"source": "patent US5587459A", "about": "“Immunoconjugates comprising tyrosine kinase inhibitors” (Regents of the University of Minnesota, priority 1994, dated 1996)", "key": {"[1]": {"system": "NALM-6 cells (human B-lineage leukemia)", "assay": "SCID mouse model of human B-lineage leukemia", "format": "in vivo", "settings": "SCID mice inoculated with NALM-6 cells; schedule of each treatment group as in Table 6", "experimental": "(§1) The pharmacokinetic features of B43-GEN was evaluated in a SCID mouse model with human B-lineage leukemia as follows. SCID mice challenged with NALM-6 cells were treated with either 25 μg/mouse=168 pmols/mouse (>10-foldlower than the MTD) or 50 μg/mouse=335 pmols/mouse (>5-fold lower than the MTD). All control mice were treated with unconjugated GEN (10 μg/mouse=37 nmols/mouse), unconjugated B43 antibody (50 μg/mouse=335pmols/mouse), TXU(anti-CD7)-GEN control immunoconjugate (50 μg/mouse=335 pmols/mouse), or PBS.\nAll control mice treated with unconjugated GEN, unconjugated B43 antibody, TXU(anti-CD7)-GEN control immunoconjugate, or PBS died of disseminated human B-lineage leukemia at 24 to 61 days after inoculation (FIG. 8). […] These long-term surviving mice were electively killed at 142 days in order to examine their burden of human leukemia cells."}, "[2]": {"target": "T1, CD19-associated LYN kinase (Homo sapiens, UniProt P07948)", "T1 construct": "LYN kinase immunoprecipitated from NALM-6 cells; endogenous in cells; host or cells: NALM-6", "T1 sequence (P07948 2-512 limits assumed)": "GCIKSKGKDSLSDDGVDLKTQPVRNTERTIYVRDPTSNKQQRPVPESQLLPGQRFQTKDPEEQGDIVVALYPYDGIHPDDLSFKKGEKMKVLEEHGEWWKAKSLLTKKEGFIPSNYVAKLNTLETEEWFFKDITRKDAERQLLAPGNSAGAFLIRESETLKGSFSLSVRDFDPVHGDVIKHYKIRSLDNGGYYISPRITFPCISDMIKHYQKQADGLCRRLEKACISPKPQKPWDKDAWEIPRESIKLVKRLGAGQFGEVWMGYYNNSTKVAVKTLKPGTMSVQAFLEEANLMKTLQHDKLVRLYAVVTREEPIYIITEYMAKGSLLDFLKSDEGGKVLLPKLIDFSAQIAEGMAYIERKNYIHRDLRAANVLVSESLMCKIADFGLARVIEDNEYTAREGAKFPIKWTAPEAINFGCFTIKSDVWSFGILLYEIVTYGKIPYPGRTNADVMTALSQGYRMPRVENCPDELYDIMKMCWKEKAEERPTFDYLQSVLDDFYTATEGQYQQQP", "assay": "Immune complex kinase assay, LYN in treated NALM-6 cells", "format": "cell-based", "settings": "NALM-6 cells treated 4 hours; immunoconjugate nanomolar, unconjugated GEN micromolar", "experimental": "Immune complex kinase assays were performed using acid-denatured rabbit enolase as an exogenous PTK substrate as previously described by Uckun et al. in J. Biol. Chem., 268, 21172 (1993).\nControls were treated with unconjugated GEN, TXU(anti-CD7)-GEN immunoconjugate directed against the CD7/Tp41 T-cell surface antigen, unconjugated and unmodified B43 antibody, or SANPAH-modified unconjugated B43 antibody."}, "[3]": {"system": "tyrosine phosphorylation of abundant protein substrates in NALM-6 cells", "assay": "Antiphosphotyrosine immunoblotting, NALM-6 cells", "format": "cell-based, human", "settings": "immunoconjugate nanomolar, unconjugated GEN micromolar"}, "RAMOS cells": {"system": "RAMOS cells", "assay": "Apoptosis assays in RAMOS cells (morphology, DNA flow cytometry, DNA fragmentation)", "format": "cell-based, human", "source_text": "DNA was then electrophoresed through a 1% agarose gel and visualized by UV light after staining with ethidium bromide."}, "[4]": {"system": "RAMOS cells (human Burkitt's lymphoma)", "assay": "SCID mouse model of human B-lineage lymphoma", "format": "in vivo, SCID mice", "settings": "5×10^6 RAMOS cells; one value pooled over all control groups incl. PBS", "experimental": "Control mice were treated with unconjugated GEN (10 μg/mouse=37 nmols/mouse), unconjugated B43 monoclonal antibody (50 μg/mouse=335 pmols/mouse), TXU(anti-CD7)-GEN control immunoconjugate (50 μg/mouse=335 pmols/mouse), or PBS. For comparison, some mice were treated with B43-pokeweed antiviral protein (PAP) immunotoxin (total=25 μg/mouse), which is an active anti-leukemia agent. Uckun et al., J. Exp. Med., 163, 347 (1986). Survival of the mice was monitored by daily observation and event times were measured from the day of inoculation of lymphoma cells to the day of death. The probability of event-free survival was determined and event-free interval curves were generated using the Kaplan-Meier product limit method as described by Uckun et al. New Engl. J. Med., 329, 1296 (1993)."}, "in vivo [5]": {"assay": "in vivo", "format": "in vivo, SCID mice", "settings": "Minimal Leukemia Burden", "experimental": "Lines represent two-compartment model simulations, symbols depict measured concentrations.\nas §1"}, "in vivo [6]": {"assay": "in vivo", "design": "species or system SCID mice", "settings": "Minimal Leukemia Burden; for Kp: mouse, in vivo, iv", "experimental": "FIG. 7[C] is a depiction of the plasma or tissue concentrations vs. time curves after i.v. injection of 58 pmol GEN (Δ) or BP43-GEN (o,) into SCID mice with end stage leukemia (dashed lines) or no leukemia (solid lines). Lines represent simulations from the physiological pharmacokinetic model, symbols depict measured concentrations.\nas §1\nThis hypothesis is supported by measurement of higher concentrations of the immunoconjugate in tissues of SCID mice with end-stage leukemia, when compared to healthy SCID mice which have not been inoculated with leukemia cells (FIG. 7C). The spleen, liver, and lungs had the highest tissue-to-plasma ratio, with the tissue distribution ratio increasing approximately 2-fold in spleen and liver of mice with end-stage leukemia (Table 5). Although tissue distribution of the immunoconjugate into the femur was low in mice with a minimal leukemia burden, it increased 3-fold in mice with end-stage leukemia, reflecting binding of the immunoconjugate to CD19 positive human B-lineage leukemia cells infiltrating bone marrow."}, "[7]": {"target": "T2, human topoisomerase II enzyme (Homo sapiens, UniProt P11388)", "T2 construct": "purchased Topogen, Inc., Columbus, Ohio", "T2 sequence (P11388 whole entry)": "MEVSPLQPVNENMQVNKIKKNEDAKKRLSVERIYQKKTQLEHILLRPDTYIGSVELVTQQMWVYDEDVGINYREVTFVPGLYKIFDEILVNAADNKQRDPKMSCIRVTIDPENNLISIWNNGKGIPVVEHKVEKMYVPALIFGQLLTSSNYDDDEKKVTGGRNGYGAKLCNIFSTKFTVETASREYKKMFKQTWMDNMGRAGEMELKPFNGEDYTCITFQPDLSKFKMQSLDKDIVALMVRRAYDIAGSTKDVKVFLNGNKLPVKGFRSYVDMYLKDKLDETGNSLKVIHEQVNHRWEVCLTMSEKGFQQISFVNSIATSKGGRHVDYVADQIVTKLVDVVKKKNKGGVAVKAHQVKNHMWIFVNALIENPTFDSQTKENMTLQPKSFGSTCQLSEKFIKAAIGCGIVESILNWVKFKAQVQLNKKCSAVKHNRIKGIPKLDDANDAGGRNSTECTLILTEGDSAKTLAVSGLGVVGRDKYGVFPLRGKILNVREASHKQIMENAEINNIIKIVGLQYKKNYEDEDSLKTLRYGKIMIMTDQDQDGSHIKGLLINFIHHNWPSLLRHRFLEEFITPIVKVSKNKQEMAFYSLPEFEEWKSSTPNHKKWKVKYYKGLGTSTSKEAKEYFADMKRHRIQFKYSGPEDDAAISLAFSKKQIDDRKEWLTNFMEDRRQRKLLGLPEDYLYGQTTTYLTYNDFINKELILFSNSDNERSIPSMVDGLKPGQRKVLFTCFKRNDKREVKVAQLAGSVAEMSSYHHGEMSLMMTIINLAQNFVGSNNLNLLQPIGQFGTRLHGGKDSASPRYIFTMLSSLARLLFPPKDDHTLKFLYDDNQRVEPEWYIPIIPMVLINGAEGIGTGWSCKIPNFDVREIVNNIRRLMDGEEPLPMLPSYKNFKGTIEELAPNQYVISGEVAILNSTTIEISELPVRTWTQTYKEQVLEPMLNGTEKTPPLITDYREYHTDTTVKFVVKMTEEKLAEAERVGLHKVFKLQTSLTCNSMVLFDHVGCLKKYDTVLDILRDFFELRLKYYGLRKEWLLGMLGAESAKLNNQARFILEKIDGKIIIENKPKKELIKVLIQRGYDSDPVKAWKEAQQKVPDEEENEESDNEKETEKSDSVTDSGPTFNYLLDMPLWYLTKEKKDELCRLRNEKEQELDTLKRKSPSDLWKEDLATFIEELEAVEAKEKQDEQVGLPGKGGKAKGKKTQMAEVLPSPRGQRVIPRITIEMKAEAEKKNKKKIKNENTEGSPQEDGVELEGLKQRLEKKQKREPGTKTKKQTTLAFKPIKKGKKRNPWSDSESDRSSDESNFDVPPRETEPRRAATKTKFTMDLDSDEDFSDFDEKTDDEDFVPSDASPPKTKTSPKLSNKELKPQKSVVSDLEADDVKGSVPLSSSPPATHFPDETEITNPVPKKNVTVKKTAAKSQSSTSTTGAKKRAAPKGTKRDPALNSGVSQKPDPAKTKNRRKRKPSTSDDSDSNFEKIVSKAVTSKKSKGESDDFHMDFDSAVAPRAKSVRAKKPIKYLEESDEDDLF", "assay": "Topoisomerase II Drug Screening kit (pRYG relaxation/cleavage)", "format": "biochemical", "settings": "B43-GEN at micromolar concentrations", "source_text": "The kit is based upon formation of DNA cleavage products after treatment of a supercoiled DNA substrate (pRYG) containing a single high affinity topoisomerase II recognition and cleavage site."}}, "note": "Where two headings read alike, the source gives them in different places.", "data": [{"compound": "O=NN(CCCl)C(=O)NCCCl", "note": "[Carmustine]", "values": [{"measurement": "EFS (%) 60 days", "setting": "[1]", "result": 20, "unit": "%"}, {"measurement": "EFS (%) 120 days", "setting": "[1]", "result": 0, "unit": "%"}, {"measurement": "Median EFS", "setting": "[1]", "result": 54, "unit": "days"}]}, {"compound": "O=P1(N(CCCl)CCCl)NCCCO1", "note": "(stereo not drawn) [Cyclophosphamide]", "values": [{"measurement": "EFS (%) 60 days", "setting": "[1]", "result": 40, "unit": "%"}, {"measurement": "EFS (%) 120 days", "setting": "[1]", "result": 10, "unit": "%"}, {"measurement": "Median EFS", "setting": "[1]", "result": 54, "unit": "days"}]}, {"compound": "Nc1ccn([C@@H]2O[C@H](CO)[C@@H](O)[C@@H]2O)c(=O)n1", "note": "[Cytarabine]", "values": [{"measurement": "EFS (%) 60 days", "setting": "[1]", "result": 20, "unit": "%"}, {"measurement": "EFS (%) 120 days", "setting": "[1]", "result": 0, "unit": "%"}, {"measurement": "Median EFS", "setting": "[1]", "result": 57, "unit": "days"}]}, {"compound": "COc1cccc2c1C(=O)c1c(O)c3c(c(O)c1C2=O)C[C@@](O)(C(=O)CO)C[C@@H]3O[C@H]1C[C@H](N)[C@H](O)[C@H](C)O1", "note": "[Doxorubicin]", "values": [{"measurement": "EFS (%) 60 days", "setting": "[1]", "result": 20, "unit": "%"}, {"measurement": "EFS (%) 120 days", "setting": "[1]", "result": 0, "unit": "%"}, {"measurement": "Median EFS", "setting": "[1]", "result": 49, "unit": "days"}]}, {"compound": "COc1cc([C@@H]2c3cc4c(cc3[C@@H](O[C@@H]3O[C@@H]5CO[C@@H](C)O[C@H]5[C@H](O)[C@H]3O)[C@H]3COC(=O)[C@H]23)OCO4)cc(OC)c1O", "note": "[Etoposide]", "values": [{"measurement": "EFS (%) 60 days", "setting": "[1]", "result": 60, "unit": "%"}, {"measurement": "EFS (%) 120 days", "setting": "[1]", "result": 30, "unit": "%"}, {"measurement": "Median EFS", "setting": "[1]", "result": 66, "unit": "days"}]}, {"compound": "O=c1c(-c2ccc(O)cc2)coc2cc(O)cc(O)c12", "note": "[GEN, 5,7,4'-trihydroxyisoflavone]", "values": [{"measurement": "Inhibition of LYN kinase (autophosphorylation, enolase substrate phosphorylation)", "setting": "[2]", "result": "failed to affect"}, {"measurement": "Tyrosine dephosphorylation of abundant protein substrates", "setting": "[3]", "result": "failed to affect"}, {"measurement": "DNA fragmentation / apoptosis by agarose gel electrophoresis", "setting": "RAMOS cells; RAMOS cells, 8-24 hours, immunoconjugates nanomolar, unconjugated GEN micromolar", "result": "no fragmentation"}, {"measurement": "DNA fragmentation by the unconjugated moieties", "setting": "RAMOS cells; high concentrations, FIG. 4B lower panel", "result": "induced DNA fragmentation"}, {"measurement": "Median event-free survival", "setting": "[4]", "result": 48.0, "unit": "days"}, {"measurement": "Cl (systemic clearance from plasma)", "setting": "in vivo [5]", "result": 49.7, "unit": "µL/h/g"}, {"measurement": "Kcp (distribution rate constant from central to peripheral compartment)", "setting": "in vivo [5]", "result": 1.341, "unit": "h⁻¹"}, {"measurement": "Kpc (distribution rate constant from peripheral to central compartment)", "setting": "in vivo [5]", "result": 0.549, "unit": "h⁻¹"}, {"measurement": "Vc (central volume of distribution)", "setting": "in vivo [5]", "result": 87.0, "unit": "µL/g"}, {"measurement": "k el", "setting": "in vivo [5]; mouse, in vivo, iv, read-out: Ke (elimination rate constant) (converted)", "result": 0.000159, "unit": "s⁻¹"}, {"measurement": "half-life", "setting": "in vivo [5]; mouse, in vivo, iv, read-out: T1/2β (elimination halflife) (converted)", "result": 5.1, "unit": "h"}, {"measurement": "Clearance, Kidney", "setting": "in vivo [6]", "result": 18.7, "unit": "µL/h/g"}, {"measurement": "Clearance, Liver", "setting": "in vivo [6]", "result": 40.9, "unit": "µL/h/g"}, {"measurement": "Total Clearance", "setting": "in vivo [6]", "result": 59.6, "unit": "µL/h/g"}, {"measurement": "Kp", "setting": "in vivo [6]; read-out: Linear Binding Constant (R), Brain", "result": 0.027}, {"measurement": "Kp", "setting": "in vivo [6]; read-out: Linear Binding Constant (R), Heart", "result": 0.335}, {"measurement": "Kp", "setting": "in vivo [6]; read-out: Linear Binding Constant (R), Kidney", "result": 0.253}, {"measurement": "Kp", "setting": "in vivo [6]; read-out: Linear Binding Constant (R), Liver", "result": 0.5}, {"measurement": "Kp", "setting": "in vivo [6]; read-out: Linear Binding Constant (R), Lungs", "result": 0.531}, {"measurement": "Kp", "setting": "in vivo [6]; read-out: Linear Binding Constant (R), Muscle", "result": 0.095}, {"measurement": "Kp", "setting": "in vivo [6]; read-out: Linear Binding Constant (R), Skin", "result": 0.208}, {"measurement": "Kp", "setting": "in vivo [6]; read-out: Linear Binding Constant (R), Spleen", "result": 0.04}, {"measurement": "Kp", "setting": "in vivo [6]; residual drug not accounted for by tissues studied, read-out: Linear Binding Constant (R), Rest of Body", "result": 1.11}]}, {"compound": "C[C@H]1C[C@@H]2[C@H](C(=O)C[C@@]3(C)[C@H]2CC[C@]3(O)C(=O)CO)[C@@]2(C)C=CC(=O)C=C12", "note": "[Methylprednisone]", "values": [{"measurement": "EFS (%) 60 days", "setting": "[1]", "result": 40, "unit": "%"}, {"measurement": "EFS (%) 120 days", "setting": "[1]", "result": 20, "unit": "%"}, {"measurement": "Median EFS", "setting": "[1]", "result": 56, "unit": "days"}]}, {"compound": "CC(=O)O[C@H]1C(=O)[C@@]2(C)[C@H]([C@H](OC(=O)c3ccccc3)[C@]3(O)C[C@H](OC(=O)[C@H](O)[C@@H](NC(=O)c4ccccc4)c4ccccc4)C(C)=C1C3(C)C)[C@]1(OC(C)=O)CO[C@@H]1C[C@@H]2O", "note": "[Taxol]", "values": [{"measurement": "EFS (%) 60 days", "setting": "[1]", "result": 0, "unit": "%"}, {"measurement": "EFS (%) 120 days", "setting": "[1]", "result": 0, "unit": "%"}, {"measurement": "Median EFS", "setting": "[1]", "result": 37, "unit": "days"}]}, {"compound": "CC[C@@]1(O)C(=O)OCc2c1cc1n(c2=O)Cc2cc3c(CN(C)C)c(O)ccc3nc2-1", "note": "[Topotecan]", "values": [{"measurement": "EFS (%) 60 days", "setting": "[1]", "result": 18, "unit": "%"}, {"measurement": "EFS (%) 120 days", "setting": "[1]", "result": 0, "unit": "%"}, {"measurement": "Median EFS", "setting": "[1]", "result": 44, "unit": "days"}]}, {"compound": "CC[C@]1(O)C[C@H]2CN(CCc3c([nH]c4ccccc34)[C@@](C(=O)OC)(c3cc4c(cc3OC)N(C=O)[C@H]3[C@@](O)(C(=O)OC)[C@H](OC(C)=O)[C@]5(CC)C=CCN6CC[C@]43[C@@H]65)C2)C1", "note": "[Vincristine]", "values": [{"measurement": "EFS (%) 60 days", "setting": "[1]", "result": 0, "unit": "%"}, {"measurement": "EFS (%) 120 days", "setting": "[1]", "result": 0, "unit": "%"}, {"measurement": "Median EFS", "setting": "[1]", "result": 51, "unit": "days"}]}, {"compound": "COc1cc([C@@H]2c3cc4c(cc3[C@@H](O[C@@H]3O[C@@H]5CO[C@@H](c6cccs6)O[C@H]5[C@H](O)[C@H]3O)[C@H]3COC(=O)[C@H]23)OCO4)cc(OC)c1O", "note": "[teniposide (VM-26), teniposide]", "values": [{"measurement": "Inhibition of topoisomerase II (relaxation of supercoiled pRYG DNA)", "setting": "[7]", "result": "impairs the ability of human topoisomerase II to relax the supercoiled DNA substrate"}]}, {"compound": "L-asparaginase", "values": [{"measurement": "EFS (%) 60 days", "setting": "[1]", "result": 0, "unit": "%"}, {"measurement": "EFS (%) 120 days", "setting": "[1]", "result": 0, "unit": "%"}, {"measurement": "Median EFS", "setting": "[1]", "result": 44, "unit": "days"}]}]}
